Experiments:
corn = assay: Test C pre-/postemergence herbicide test; type: in vivo, Zea mays
In short: (§1)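 Pre-emergence: seeds sown in loam/sand blend and treated with compound in surfactant-containing solvent. Post-emergence: plants at 2–18 cm (1- to 4-leaf stage) in peat-based medium sprayed with the same formulation. Visual rating versus controls after 13–15 days in greenhouse, scale 0 (no effect) to 100 (complete control).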

morningglory = assay: Test C pre-/postemergence herbicide test; type: in vivo, Ipomoea coccinea
In short: as §1

ducksalad = assay: Test B flooded paddy test; type: in vivo, Heteranthera limosa; conditions: 500 g ai/ha, Flood; scale of 0 to 100 where 0 is no effect and 100 is complete control
In short: (§2)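 Visual ratings from 0, meaning no effect, up to 100, meaning complete control, were made by comparison with untreated controls 13 to 15 days after treatment. Test compounds went straight into floodwater standing 3 cm over the soil of pots holding 2-leaf seedlings.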

sedge, umbrella = assay: Test B flooded paddy test; type: in vivo, Cyperus difformis; conditions: 500 g ai/ha, Flood; scale of 0 to 100 where 0 is no effect and 100 is complete control
In short: as §2

ragweed = assay: Test C pre-/postemergence herbicide test; type: in vivo, Ambrosia elatior
In short: as §1

lambsquarters = assay: Test C pre-/postemergence herbicide test; type: in vivo, Chenopodium album
In short: as §1

wheat (winter wheat) = assay: Test C pre-/postemergence herbicide test; type: in vivo, Triticum aestivum; conditions: for Plant response rating, Wheat: Postemergence
In short: as §1

ryegrass, Italian = assay: Test C pre-/postemergence herbicide test; type: in vivo, Lolium multiflorum
In short: as §1

barnyardgrass [1] = assay: Test C pre-/postemergence herbicide test; type: in vivo, Echinochloa crus-galli
In short: as §1

waterhemp = assay: Test C pre-/postemergence herbicide test; type: in vivo, Amaranthus rudis
In short: as §1

oat, wild = assay: Test C pre-/postemergence herbicide test; type: in vivo, Avena fatua; conditions: Postemergence
In short: as §1

soybean = assay: Test C pre-/postemergence herbicide test; type: in vivo, Glycine max
In short: as §1

pigweed = assay: Test C pre-/postemergence herbicide test; type: in vivo, Amaranthus retroflexus
In short: as §1

galium = assay: Test C pre-/postemergence herbicide test; type: in vivo, Galium aparine
In short: as §1

barnyardgrass [2] = assay: Test B flooded paddy test; type: in vivo, Echinochloa crus-galli; conditions: 500 g ai/ha, Flood; scale of 0 to 100 where 0 is no effect and 100 is complete control
In short: as §2

[3] = Postemergence, 31 g ai/ha, scale 0 to 100 (0 no effect, 100 complete control)
[4] = Postemergence, 62 g ai/ha, scale 0 (no effect) to 100 (complete control)
[5] = Postemergence, 125 g ai/ha, scale 0 to 100 (0 no effect, 100 complete control)
[6] = Postemergence, 250 g ai/ha, scale 0 to 100 (0 no effect, 100 complete control)
[7] = Preemergence, 31 g ai/ha, scale 0 to 100, 0 is no effect and 100 is complete control
[8] = Preemergence, 62 g ai/ha, scale 0 to 100 (0 no effect, 100 complete control)
[9] = Preemergence, 125 g ai/ha, scale 0 to 100 (0 no effect, 100 complete control)
[10] = 31 g ai/ha, scale 0 to 100 (0 no effect, 100 complete control)
[11] = 62 g ai/ha, scale 0 (no effect) to 100 (complete control)
[12] = 125 g ai/ha, scale 0 to 100 (0 no effect, 100 complete control)
[13] = 250 g ai/ha, scale 0 to 100 (0 no effect, 100 complete control)

O=C1NCC(c2cccc(Cl)c2)C1C(=O)Nc1cccc(F)c1F (racemic) [Compound 275]
Plant response rating, Corn (corn; [3]): 0 | Plant response rating, Corn (corn; [4]): 0 | Plant response rating, Corn (corn; [5]): 0 | Plant response rating, Corn (corn; [6]): 55 | Corn plant response rating (corn; [7]): 0 | Corn plant response rating (corn; [8]): 10 | Plant response rating, Corn (corn; [9]): 75 | Plant response rating (scale of 0 to 100), Corn (corn; Preemergence, 250 g ai/ha): 75 | Plant response rating, Morningglory (morningglory; [3]): 10 | Plant response rating, Morningglory (morningglory; [4]): 10 | Plant response rating, Morningglory (morningglory; [5]): 20 | Plant response rating, Morningglory (morningglory; [6]): 20 | Morningglory plant response rating (morningglory; [7]): 0 | Morningglory plant response rating (morningglory; [8]): 0 | Plant response rating, Morningglory (morningglory; [9]): 0 | Plant response rating (scale of 0 to 100), Morningglory (morningglory; Preemergence, 250 g ai/ha): 50 | Plant response rating, Ducksalad (ducksalad): 100 | Plant response rating, Sedge, Umbrella (sedge, umbrella): 30 | Plant response rating, Ragweed (ragweed; [3]): 20 | Plant response rating, Ragweed (ragweed; [4]): 65 | Plant response rating, Ragweed (ragweed; [5]): 70 | Plant response rating, Ragweed (ragweed; [6]): 70 | Ragweed plant response rating (ragweed; [7]): 5 | Ragweed plant response rating (ragweed; [8]): 5 | Plant response rating, Ragweed (ragweed; [9]): 60 | Plant response rating (scale of 0 to 100), Ragweed (ragweed; Preemergence, 250 g ai/ha): 85 | Plant response rating, Lambsquarters (lambsquarters; [3]): 10 | Plant response rating, Lambsquarters (lambsquarters; [4]): 60 | Plant response rating, Lambsquarters (lambsquarters; [5]): 75 | Plant response rating, Lambsquarters (lambsquarters; [6]): 75 | Lambsquarters plant response rating (lambsquarters; [7]): 70 | Lambsquarters plant response rating (lambsquarters; [8]): 75 | Plant response rating, Lambsquarters (lambsquarters; [9]): 85 | Plant response rating (scale of 0 to 100), Lambsquarters (lambsquarters; Preemergence, 250 g ai/ha): 98 | Plant response rating, Wheat (wheat (winter wheat); [10]): 0 | Plant response rating, Wheat (wheat (winter wheat); [11]): 0 | Plant response rating, Wheat (wheat (winter wheat); [12]): 0 | Plant response rating, Wheat (wheat (winter wheat); [13]): 0 | Wheat plant response rating (wheat (winter wheat); [7]): 5 | Wheat plant response rating (wheat (winter wheat); [8]): 45 | Plant response rating (scale of 0 to 100), Wheat (wheat (winter wheat); Preemergence, 250 g ai/ha): 90 | Plant response rating, Ryegrass, Italian (ryegrass, Italian; [3]): 0 | Plant response rating, Ryegrass, Italian (ryegrass, Italian; [4]): 0 | Plant response rating, Ryegrass, Italian (ryegrass, Italian; [5]): 5 | Plant response rating, Ryegrass, Italian (ryegrass, Italian; [6]): 25 | Ryegrass, Italian plant response rating (ryegrass, Italian; [7]): 15 | Ryegrass, Italian plant response rating (ryegrass, Italian; [8]): 40 | Plant response rating, Ryegrass, Italian (ryegrass, Italian; [9]): 50 | Plant response rating (scale of 0 to 100), Ryegrass, Italian (ryegrass, Italian; Preemergence, 250 g ai/ha): 60 | Plant response rating, Barnyardgrass (barnyardgrass [1]; [3]): 30 | Plant response rating, Barnyardgrass (barnyardgrass [1]; [4]): 60 | Plant response rating, Barnyardgrass (barnyardgrass [1]; [5]): 75 | Plant response rating, Barnyardgrass (barnyardgrass [1]; [6]): 85 | Barnyardgrass plant response rating (barnyardgrass [1]; [7]): 80 | Barnyardgrass plant response rating (barnyardgrass [1]; [8]): 95 | Plant response rating, Barnyardgrass (barnyardgrass [1]; [9]): 95 | Plant response rating (scale of 0 to 100; 0 is no effect, 100 is complete control), Barnyardgrass (barnyardgrass [1]; Preemergence, 250 g ai/ha): 98 | Plant response rating, Waterhemp (waterhemp; [3]): 0 | Plant response rating, Waterhemp (waterhemp; [4]): 0 | Plant response rating, Waterhemp (waterhemp; [5]): 0 | Plant response rating, Waterhemp (waterhemp; [6]): 20 | Waterhemp plant response rating (waterhemp; [7]): 0 | Waterhemp plant response rating (waterhemp; [8]): 0 | Plant response rating, Waterhemp (waterhemp; [9]): 15 | Plant response rating (scale of 0 to 100), Waterhemp (waterhemp; Preemergence, 250 g ai/ha): 60 | Plant response rating, Oat, Wild (oat, wild; [10]): 0 | Plant response rating, Oat, Wild (oat, wild; [11]): 0 | Plant response rating, Oat, Wild (oat, wild; [12]): 0 | Plant response rating, Oat, Wild (oat, wild; [13]): 5 | Plant response rating, Soybean (soybean; [3]): 0 | Plant response rating, Soybean (soybean; [4]): 0 | Plant response rating, Soybean (soybean; [5]): 0 | Plant response rating, Soybean (soybean; [6]): 10 | Soybean plant response rating (soybean; [7]): 0 | Soybean plant response rating (soybean; [8]): 0 | Plant response rating, Soybean (soybean; [9]): 0 | Plant response rating (scale of 0 to 100), Soybean (soybean; Preemergence, 250 g ai/ha): 15 | Plant response rating, Pigweed (pigweed; [3]): 5 | Plant response rating, Pigweed (pigweed; [4]): 5 | Plant response rating, Pigweed (pigweed; [5]): 30 | Plant response rating, Pigweed (pigweed; [6]): 35 | Pigweed plant response rating (pigweed; [7]): 0 | Pigweed plant response rating (pigweed; [8]): 0 | Plant response rating, Pigweed (pigweed; [9]): 10 | Plant response rating (scale of 0 to 100), Pigweed (pigweed; Preemergence, 250 g ai/ha): 40 | Plant response rating, Galium (galium; [3]): 50 | Plant response rating, Galium (galium; [4]): 55 | Plant response rating, Galium (galium; [5]): 75 | Plant response rating, Galium (galium; [6]): 80 | Galium plant response rating (galium; [7]): 0 | Galium plant response rating (galium; [8]): 90 | Plant response rating, Galium (galium; [9]): 30 | Plant response rating (scale of 0 to 100), Galium (galium; Preemergence, 250 g ai/ha): 85 | Plant response rating, Barnyardgrass (barnyardgrass [2]): 85
